Measured values from ChEMBL document CHEMBL1155790 (Bioorg Med Chem, 2008).

Tests used:
Acetylcholinesterase = molecular target: T1, Acetylcholinesterase (Bos taurus, UniProt P23795)
T1 sequence (P23795 whole entry): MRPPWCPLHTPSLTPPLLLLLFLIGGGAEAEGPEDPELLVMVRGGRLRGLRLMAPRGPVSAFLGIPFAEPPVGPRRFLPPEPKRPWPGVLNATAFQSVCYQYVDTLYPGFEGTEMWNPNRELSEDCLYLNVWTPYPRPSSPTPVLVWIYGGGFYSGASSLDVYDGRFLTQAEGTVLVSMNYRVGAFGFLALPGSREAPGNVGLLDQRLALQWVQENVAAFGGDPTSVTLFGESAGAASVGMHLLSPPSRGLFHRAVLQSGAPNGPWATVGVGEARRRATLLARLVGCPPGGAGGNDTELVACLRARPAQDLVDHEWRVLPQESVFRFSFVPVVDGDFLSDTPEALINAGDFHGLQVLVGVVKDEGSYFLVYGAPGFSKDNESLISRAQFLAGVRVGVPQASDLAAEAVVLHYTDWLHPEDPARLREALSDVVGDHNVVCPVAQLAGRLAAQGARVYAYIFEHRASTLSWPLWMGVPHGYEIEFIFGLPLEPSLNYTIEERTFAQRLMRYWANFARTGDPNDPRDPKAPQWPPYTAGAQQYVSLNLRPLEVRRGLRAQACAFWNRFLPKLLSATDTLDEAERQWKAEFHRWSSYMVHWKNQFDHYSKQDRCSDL
Description: Inhibition of bovine AChE by Ellman's method

[1] = molecular target: Cholinesterase (Equus caballus) (UniProt P81908); assay: Inhibition of equine BChE at 10 uM by Ellman's method
[2] = molecular target: Cholinesterase (Equus caballus) (UniProt P81908); assay: Inhibition of equine BChE at 50 uM by Ellman's method
Cholinesterase = Cholinesterase (Equus caballus, UniProt P81908)
Description: Inhibition of equine BChE by Ellman's method

[3] = Selectivity index, IC50 for equine BChE to IC50 for bovine AChE by Ellman's method
[4] = molecular target: T2, Acetylcholinesterase (Bos taurus) (UniProt P23795); assay: Inhibition of bovine AChE at 50 uM by Ellman's method
T2 sequence (whole entry): T1 sequence (P23795 whole entry)

[5] = molecular target: T2, Acetylcholinesterase (Bos taurus); assay: Inhibition of bovine AChE at 10 uM by Ellman's method

Cholinesterase (Equus caballus), sequence (P81908 whole entry): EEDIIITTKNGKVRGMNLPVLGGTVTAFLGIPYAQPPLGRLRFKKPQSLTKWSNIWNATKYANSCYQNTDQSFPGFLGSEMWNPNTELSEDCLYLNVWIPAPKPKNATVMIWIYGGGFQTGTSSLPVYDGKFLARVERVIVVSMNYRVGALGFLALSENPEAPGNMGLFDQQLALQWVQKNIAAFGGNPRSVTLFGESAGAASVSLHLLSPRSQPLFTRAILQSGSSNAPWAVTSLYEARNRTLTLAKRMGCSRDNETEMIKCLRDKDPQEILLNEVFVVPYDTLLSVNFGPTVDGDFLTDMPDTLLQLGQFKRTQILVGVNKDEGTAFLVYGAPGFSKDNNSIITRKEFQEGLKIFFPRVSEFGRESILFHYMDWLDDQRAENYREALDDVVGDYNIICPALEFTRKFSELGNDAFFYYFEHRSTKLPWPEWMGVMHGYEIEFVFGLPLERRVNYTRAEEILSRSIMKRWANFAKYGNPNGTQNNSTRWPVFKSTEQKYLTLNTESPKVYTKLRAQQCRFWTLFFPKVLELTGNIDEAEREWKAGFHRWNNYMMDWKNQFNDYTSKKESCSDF
Cholinesterase, sequence (P81908 whole entry): as above

`CC[N+](CC)(CCNC(=O)C(=O)NCC[N+](CC)(CC)Cc1ccccc1Cl)Cc1ccccc1Cl` [AMBENONIUM] gave an IC50 (Acetylcholinesterase) of 0.12 nM.
In the case of `C[N+](C)(C)c1cc(O)cc(OCCCCOc2cc(O)cc([N+](C)(C)Cc3ccccc3)c2)c1`, the IC50 (Acetylcholinesterase) is reported as 6560 nM and the inhibition [1] is reported as 42%.
`C[N+](C)(C)c1cccc(O)c1` showed an IC50 (Acetylcholinesterase) of 12000 nM and an inhibition [1] of 13%.
For `Cc1c(C)c2ccc(OCCCCOc3cc(O)cc(N(C)C)c3)cc2oc1=O`, the IC50 (Acetylcholinesterase) was 275 nM and the inhibition [2] was 25%.
For `C[N+](C)(C)c1cccc(OCCCCOc2cccc([N+](C)(C)C)c2)c1`, the IC50 (Cholinesterase) was 2340 nM, the IC50 (Acetylcholinesterase) was 158 nM and the Selectivity Index [3] was 15.
In the case of `CN(Cc1ccccc1)c1cc(O)cc(OCCCOc2cc(O)cc(N(C)Cc3ccccc3)c2)c1`, the inhibition [4] is reported as 3%.
`COc1ccc2c(C)c(C)c(=O)oc2c1` showed an IC50 (Acetylcholinesterase) of 42000 nM and an inhibition [1] of 25%.
Work on `Cc1c(C)c2ccc(OCCCCOc3cc(O)cc([N+](C)(C)C)c3)cc2oc1=O` yielded an IC50 (Cholinesterase) of 708 nM, an IC50 (Acetylcholinesterase) of 1 nM and a Selectivity Index [3] of 708.
With `C[N+](C)(C)c1cc(O)cc(OCCCCOc2cc(O)cc([N+](C)(C)C)c2)c1` the IC50 (Cholinesterase) was 715 nM.
In the case of `Cc1c(C)c2ccc(OCCCCOc3cc(O)cc(N(C)Cc4ccccc4)c3)cc2oc1=O`, the inhibition [5] is reported as 15%.
Work on `CN(C)c1cc(O)cc(OCCCOc2cc(O)cc(N(C)C)c2)c1` yielded an IC50 (Acetylcholinesterase) of 1910 nM.
Work on `Cc1c(C)c2ccc(OCCCOc3cc(O)cc(N(C)C)c3)cc2oc1=O` yielded an IC50 (Acetylcholinesterase) of 871 nM.
In the case of `Cc1c(C)c2ccc(OCCCOc3cc(O)cc([N+](C)(C)C)c3)cc2oc1=O`, the IC50 (Cholinesterase) is reported as 1060 nM, the IC50 (Acetylcholinesterase) is reported as 2.1 nM and the Selectivity Index [3] is reported as 505.
For `C[N+](C)(C)c1cc(O)cc(OCCCOc2cc(O)cc([N+](C)(C)C)c2)c1`, the IC50 (Cholinesterase) was 718 nM, the IC50 (Acetylcholinesterase) was 0.49 nM and the Selectivity Index [3] was 1460.
Compound `Cc1c(C)c2ccc(OCCCOc3cc(O)cc(N(C)Cc4ccccc4)c3)cc2oc1=O` has an inhibition [5] of 8%.
`CN(C)c1cc(O)cc(OCCCCOc2cc(O)cc(N(C)C)c2)c1` gave an IC50 (Acetylcholinesterase) of 6460 nM and an inhibition [2] of 25%.
`CN(C)c1cc(O)cc(OCCCOc2cc(O)cc(N(C)Cc3ccccc3)c2)c1` gave an IC50 (Acetylcholinesterase) of 6170 nM.
`CN(Cc1ccccc1)c1cc(O)cc(OCCCCOc2cc(O)cc(N(C)Cc3ccccc3)c2)c1` showed an inhibition [4] of 3% and an inhibition [5] of 14%.
With `C=CC[N+](C)(C)c1ccc(CCC(=O)CCc2ccc([N+](C)(C)CC=C)cc2)cc1` the IC50 (Acetylcholinesterase) was 8 nM.
With `CN(C)c1cc(O)cc(OCCCCOc2cc(O)cc(N(C)Cc3ccccc3)c2)c1` the inhibition [5] was 40%.
